Measurements from paper PMC6882824, “Engineering of chimeric peptides as antagonists for the G protein-coupled receptor, RXFP4” (Scientific Reports, 2019).
Read-outs that look alike come from different tables or passages of the source. Bridge positions count the residues as written; N and C are the ends. Peptide text beside a SMILES is read from it. I, II: the chains in the order shown.

Tests used:
RXFP4 [1] = molecular target: T1, RXFP4 (Homo sapiens, UniProt Q8TDU9); experiment: cAMP agonist assay (inhibition of forskolin-induced cAMP, pCRE β-galactosidase reporter) in CHO-K1-RXFP4 cells; format: cell-based; parameters: expressed in transfected cells; host or cells: CHO-K1 (ATCC), stably transfected; settings: CHO-K1-RXFP4 cells, inhibition of 1 µM forskolin-induced cAMP, 6 hours; mean ± SEM, n in cell
T1 sequence (Q8TDU9 whole entry): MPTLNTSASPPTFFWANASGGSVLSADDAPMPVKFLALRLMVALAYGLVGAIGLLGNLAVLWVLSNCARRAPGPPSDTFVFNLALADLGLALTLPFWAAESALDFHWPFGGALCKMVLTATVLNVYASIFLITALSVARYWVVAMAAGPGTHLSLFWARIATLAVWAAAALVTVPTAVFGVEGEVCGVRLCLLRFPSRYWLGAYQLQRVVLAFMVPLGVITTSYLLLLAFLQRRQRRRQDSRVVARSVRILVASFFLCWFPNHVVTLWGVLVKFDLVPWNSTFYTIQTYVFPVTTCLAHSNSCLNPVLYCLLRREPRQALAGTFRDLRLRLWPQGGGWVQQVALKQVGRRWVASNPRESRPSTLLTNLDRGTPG
Experimental: (§1) The peptides were tested for their ability to inhibit forskolin induced cAMP activity in CHO-K1-RXFP3 or CHO-K1-RXFP4 cells transfected with a pCRE (cAMP Response Element) β-galactosidase reporter plasmid as previously described[9],[34]. For agonist assays cells were stimulated with forskolin (5 µM for RXFP3, 1 µM for RXFP4) plus or minus increasing concentrations of each peptide for 6 hours. For antagonist assays cells were stimulated with forskolin as in agonist assays plus increasing concentrations of each peptide for 10 minutes followed by stimulation with agonist at an ~EC80 concentration for a further 6 hours (10 nM Analogue 2 for RXFP3 and 16.6 nM Analogue 13 for RXFP4). Each peptide was tested in triplicate and each experiment was performed independently at least three times. Agonist data was expressed as the % Forskolin activity whereby 100% was defined as Forskolin alone and 0% as maximum agonist stimulation (1 µM Analogue 2 for RXFP3 and 1 µM Analogue 13 for RXFP4). […] Data were analysed and plotted using GraphPad PRISM 8 and are expressed as the mean ± SEM of the pooled data. Statistical analysis was conducted using one-way ANOVA with Uncorrected Fisher’s LSD post-hoc analysis in GraphPad Prism version 8.

RXFP4 [2] = molecular target: T1, RXFP4; experiment: cAMP antagonist assay against 16.6 nM analogue 13 in CHO-K1-RXFP4 cells; format: cell-based; parameters: expressed in transfected cells; host or cells: CHO-K1 (ATCC), stably transfected; settings: for Emax: SEM, read-out: RXFP4 Emax (antagonist efficacy)
Experimental: as §1

RXFP3 [3] = molecular target: T2, RXFP3 (Homo sapiens, UniProt Q9NSD7); experiment: cAMP agonist assay (inhibition of forskolin-induced cAMP, pCRE β-galactosidase reporter) in CHO-K1-RXFP3 cells; format: cell-based; settings: CHO-K1-RXFP3 cells, inhibition of 5 µM forskolin-induced cAMP, 6 hours; mean ± SEM, n in cell
T2 construct: expressed in transfected cells; host or cells: CHO-K1 (ATCC), stably transfected
T2 sequence (Q9NSD7 1-469): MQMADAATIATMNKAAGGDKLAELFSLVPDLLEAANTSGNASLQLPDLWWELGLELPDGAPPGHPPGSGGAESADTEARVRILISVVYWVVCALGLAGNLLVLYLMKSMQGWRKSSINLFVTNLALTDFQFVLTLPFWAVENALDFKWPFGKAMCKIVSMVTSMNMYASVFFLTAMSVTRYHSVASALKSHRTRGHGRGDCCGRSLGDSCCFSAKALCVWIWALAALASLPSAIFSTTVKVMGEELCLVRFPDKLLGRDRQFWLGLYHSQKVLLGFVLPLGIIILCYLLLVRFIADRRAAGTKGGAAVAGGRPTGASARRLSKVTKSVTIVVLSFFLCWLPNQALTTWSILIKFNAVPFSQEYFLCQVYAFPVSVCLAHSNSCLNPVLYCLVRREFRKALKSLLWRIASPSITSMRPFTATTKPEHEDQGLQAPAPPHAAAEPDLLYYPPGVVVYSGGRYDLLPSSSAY
Experimental: as §1

RXFP3 [4] = molecular target: T2, RXFP3; experiment: Competition binding in CHO-K1-RXFP3 cells (Eu-H3B1-22R)
Experimental: (§2) Chinese hamster ovary CHO-K1 cells (sourced from American Type Culture Collection (ATCC), Maryland, USA) stably transfected with RXFP3[33] or RXFP4[9] were plated out onto precoated poly-L-lysine 96-well view plates at a density of 50 000 cells per well. Medium was aspirated off and the cells were washed with phosphate-buffered saline (PBS) before competition binding assays were performed with 5 nM Eu-H3B1–22R[34] (RXFP3 ligand) or 5 nM Eu-DTPA-mINSL5[9] (RXFP4 ligand) as previously described. Competition binding curves were performed in triplicate and each experiment was performed independently at least three times. Fluorescent measurements were carried out on a BMG POLARstar plate reader (BMG Labtech, Melbourne, Australia. Pooled data are presented as mean ± S.E of specific binding and are fitted using one-site binding curve in GraphPad Prism version 8 (GraphPad Inc., San Diego, USA). Statistical analyses were conducted using one-way analysis of variance with uncorrected Fisher’s least significant difference (LSD) post-hoc analysis in GraphPad Prism version 8.

RXFP3 [5] = molecular target: T2, RXFP3; experiment: cAMP antagonist assay against 10 nM analogue 2 in CHO-K1-RXFP3 cells; format: cell-based; settings: for Emax: SEM, read-out: RXFP3 Emax (antagonist efficacy)
Experimental: as §1

RXFP4 [6] = molecular target: T1, RXFP4; experiment: Competition binding in CHO-K1-RXFP4 cells (Eu-DTPA-mINSL5); parameters: expressed in transfected cells; host or cells: CHO-K1 (ATCC), stably transfected
Experimental: as §2

[7] = CHO-K1-RXFP4 cells, block of 16.6 nM analogue 13, read-out: RXFP4 Antagonist potency IC50
[8] = CHO-K1 cells stably transfected with RXFP3, competition with 5 nM Eu-H3B1-22R, read-out: RXFP3 Binding Ki
[9] = CHO-K1 cells stably transfected with RXFP4, competition with 5 nM Eu-DTPA-mINSL5, read-out: RXFP4 Binding Ki
[10] = CHO-K1-RXFP3 cells, peptide 10 minutes, then 10 nM analogue 2 for 6 hours, 5 µM forskolin, mean ± SEM, read-out: RXFP3 Antagonist potency pIC50 (converted)

Compound | RXFP4 Activity pEC50 (RXFP4 [1]) | IC50 (RXFP4 [2]; [7]) | Emax (RXFP4 [2]) | RXFP3 Activity pEC50 (RXFP3 [3]) | Ki (RXFP3 [4]; [8]) | IC50 (RXFP3 [5]; CHO-K1-RXFP3 cells, block of 10 nM analogue 2, read-out: RXFP3 Antagonist potency IC50) | Emax (RXFP3 [5]) | Ki (RXFP4 [6]; [9]) | IC50 (RXFP3 [5]; [10]) | IC50 (RXFP4 [2]) | Ki (RXFP3 [4]) | IC50 (RXFP3 [5]) | Ki (RXFP4 [6])
CC[C@H](C)[C@@H]1NC(=O)[C@H](Cc2ccccc2)NC(=O)[C@H](CCC(=O)O)NC(=O)[C@H](CC(C)C)NC(=O)CNC(=O)[C@@H](NC(=O)[C@H](CC(C)C)NC(=O)[C@H](CCCNC(=N)N)NC(=O)[C@@H](NC(=O)CNC(=O)[C@H](Cc2ccc(O)cc2)NC(=O)[C@@H]2CCCN2C(=O)[C@H](C)NC(=O)[C@H](C)NC(=O)[C@@H](N)CCCNC(=N)N)C(C)C)CSSC[C@@H]2NC(=O)[C@@H](NC(=O)[C@H](CC(C)C)NC(=O)[C@@H](NC(=O)[C@H](CCC(N)=O)NC(=O)[C@H](CC(C)C)NC(=O)[C@H](CC(=O)O)NC(=O)[C@@H]3CCC(=O)N3)[C@@H](C)O)CSSC[C@H](NC(=O)CNC(=O)[C@H](CC(=O)O)NC(=O)[C@H]([C@@H](C)O)NC2=O)C(=O)N[C@@H](CO)C(=O)N[C@@H](CCSC)C(=O)N[C@@H]([C@@H](C)O)C(=O)N[C@@H](CC(=O)O)C(=O)N[C@@H](CC(C)C)C(=O)N[C@@H](CO)C(=O)N[C@@H](C)C(=O)N[C@@H](CC(C)C)C(=O)N[C@H](C(=O)O)CSSC[C@@H](C(=O)N[C@@H](CCCNC(=N)N)C(=O)O)NC(=O)[C@H]([C@@H](C)O)NC(=O)[C@H](Cc2ccccc2)NC(=O)[C@H]([C@@H](C)CC)NC(=O)[C@H](C(C)C)NC(=O)[C@H](C)NC(=O)[C@H](CCCNC(=N)N)NC1=O [Analogue 14] | Weak partial agonist (6) | 331 nM | 37.3 ± 7.6% | No activity (3) | 24 nM | 263 nM | 66.5 ± 14.8% | 24 nM |  |  |  |  | 
CC[C@H](C)[C@@H]1NC(=O)[C@H](Cc2ccccc2)NC(=O)[C@H](CCC(=O)O)NC(=O)[C@H](CCCNC(=N)N)NC(=O)CNC(=O)[C@@H](NC(=O)[C@H](CC(C)C)NC(=O)[C@H](CCCNC(=N)N)NC(=O)[C@@H](NC(=O)CNC(=O)[C@H](Cc2ccc(O)cc2)NC(=O)[C@@H]2CCCN2C(=O)[C@H](C)NC(=O)[C@H](C)NC(=O)[C@@H](N)CCCNC(=N)N)C(C)C)CSSC[C@H](N)C(=O)N[C@@H]([C@@H](C)O)C(=O)N[C@@H](CC(=O)O)C(=O)NCC(=O)N[C@@H](C)C(=O)N[C@@H](CO)C(=O)N[C@@H](CCSC)C(=O)N[C@@H](CCCCN)C(=O)N[C@@H](CC(=O)O)C(=O)N[C@@H](CC(C)C)C(=O)N[C@@H](CO)C(=O)N[C@@H](C)C(=O)N[C@@H](CC(C)C)C(=O)N[C@H](C(=O)O)CSSC[C@@H](C(=O)N[C@@H](CCCNC(=N)N)C(=O)O)NC(=O)[C@H]([C@@H](C)O)NC(=O)[C@H](Cc2ccccc2)NC(=O)[C@H]([C@@H](C)CC)NC(=O)[C@H](C(C)C)NC(=O)[C@H](C)NC(=O)[C@H](CCCNC(=N)N)NC1=O [Analogue 15] (I: H-RAAPYGVRLCGREFIRAVIFTCR-OH / II: H-CTDGASMKDLSALC-OH; disulfide I:10-II:1, I:22-II:14) | Weak partial agonist (5) |  | 49.4 ± 6.2% | No activity (4) | 15.5 nM |  | 43.5 ± 12.1% | 22.9 nM | > 10000 nM |  |  |  | 
CC[C@H](C)[C@@H]1NC(=O)[C@H](Cc2ccccc2)NC(=O)[C@H](CCC(=O)O)NC(=O)[C@H](CC(C)C)NC(=O)CNC(=O)[C@@H](NC(=O)[C@H](CC(C)C)NC(=O)[C@H](CCCNC(=N)N)NC(=O)[C@@H](NC(=O)CNC(=O)[C@H](Cc2ccc(O)cc2)NC(=O)[C@@H]2CCCN2C(=O)[C@H](C)NC(=O)[C@H](C)NC(=O)[C@@H](N)CCCNC(=N)N)C(C)C)CSSC[C@H](N)C(=O)N[C@@H]([C@@H](C)O)C(=O)N[C@@H](CC(=O)O)C(=O)NCC(=O)N[C@@H](C)C(=O)N[C@@H](CO)C(=O)N[C@@H](CCSC)C(=O)N[C@@H](CCCCN)C(=O)N[C@@H](CC(=O)O)C(=O)N[C@@H](CC(C)C)C(=O)N[C@@H](CO)C(=O)N[C@@H](C)C(=O)N[C@@H](CC(C)C)C(=O)N[C@H](C(=O)O)CSSC[C@@H](C(=O)N[C@@H](CCCNC(=N)N)C(=O)O)NC(=O)[C@H]([C@@H](C)O)NC(=O)[C@H](Cc2ccccc2)NC(=O)[C@H]([C@@H](C)CC)NC(=O)[C@H](C(C)C)NC(=O)[C@H](C)NC(=O)[C@H](CCCNC(=N)N)NC1=O [Analogue 18] (I: H-RAAPYGVRLCGLEFIRAVIFTCR-OH / II: H-CTDGASMKDLSALC-OH; disulfide I:10-II:1, I:22-II:14) | Weak partial agonist (3) | 214 nM | 56.2 ± 11.8% | No activity (3) | 25.7 nM |  | 47 ± 7.3% | 14.8 nM | > 10000 nM |  |  |  | 
CC[C@H](C)[C@@H]1NC(=O)[C@H](Cc2ccccc2)NC(=O)[C@H](CCC(=O)O)NC(=O)[C@H](CCCNC(=N)N)NC(=O)CNC(=O)[C@@H](NC(=O)[C@H](CC(C)C)NC(=O)[C@H](CCCNC(=N)N)NC(=O)[C@@H](NC(=O)CNC(=O)[C@H](Cc2ccc(O)cc2)NC(=O)[C@@H]2CCCN2C(=O)[C@H](C)NC(=O)[C@H](C)NC(=O)[C@@H](N)CCCNC(=N)N)C(C)C)CSSC[C@H](N)C(=O)N[C@@H]([C@@H](C)O)C(=O)N[C@@H](CC(=O)O)C(=O)NCC(=O)N[C@@H](C)C(=O)N[C@@H](CO)C(=O)N[C@@H](CCSC)C(=O)N[C@@H](CCCCN)C(=O)N[C@@H](CC(=O)O)C(=O)N[C@@H](CC(C)C)C(=O)N[C@@H](CO)C(=O)N[C@@H](C)C(=O)N[C@@H](CC(C)C)C(=O)N[C@H](C(=O)O)CSSC[C@@H](C(=O)N[C@@H](CCCNC(=N)N)C(=O)O)NC(=O)[C@H]([C@@H](C)O)NC(=O)[C@H](Cc2ccccc2)NC(=O)[C@H]([C@@H](C)CC)NC(=O)[C@H](C(C)C)NC(=O)[C@H]([C@@H](C)O)NC(=O)[C@H](CCCNC(=N)N)NC1=O [Analogue 17] (I: H-RAAPYGVRLCGREFIRTVIFTCR-OH / II: H-CTDGASMKDLSALC-OH; disulfide I:10-II:1, I:22-II:14) | Weak partial agonist (4) |  | 36 ± 10% | No activity (3) |  |  | 34.8 ± 0.9% |  |  | 34.7 nM | 19.1 nM | > 10000 nM | 40.7 nM
